Laboratory results as given in the supplement of paper PMC4932681.

Assays:
Test in all cases: viability inhibition at highest dose (% inhibition); higher = more growth inhibition
BT-474 Tam1 = conditions: 4-OH-tamoxifen in medium 1 µM; 72 h
Experimental: (§1)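 Percent inhibition of viability (CellTiter-Glo, 72 h) at the highest tested concentration (D5), normalised to DMSO (0%) and 100 µM benzethonium chloride (100%). Resistant lines and the 'in 1µM tamoxifen' arms were tested in 1 µM 4-OH-tamoxifen.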

BT-474 Tam2 = conditions: 4-OH-tamoxifen in medium 1 µM; 72 h
Experimental: as §1

BT-474 = conditions: 72 h
Experimental: as §1

MCF-7 Tam1 = conditions: 4-OH-tamoxifen in medium 1 µM; 72 h
Experimental: as §1

MCF-7 = conditions: 72 h
Experimental: as §1

T-47D Tam1 = conditions: 4-OH-tamoxifen in medium 1 µM; 72 h
Experimental: as §1

T-47D Tam2 = conditions: 4-OH-tamoxifen in medium 1 µM; 72 h
Experimental: as §1

T-47D = conditions: 72 h
Experimental: as §1

ZR-75-1 Tam1 = conditions: 4-OH-tamoxifen in medium 1 µM; 72 h
Experimental: as §1

ZR-75-1 Tam2 = conditions: 4-OH-tamoxifen in medium 1 µM; 72 h
Experimental: as §1

ZR-75-1 = conditions: 72 h
Experimental: as §1

| Compound | viability inhibition at highest dose (BT-474 Tam1) | viability inhibition at highest dose (BT-474 Tam2) | viability inhibition at highest dose (BT-474; 4-OH-tamoxifen in medium 0 µM) | viability inhibition at highest dose (BT-474; 4-OH-tamoxifen in medium 1 µM) | viability inhibition at highest dose (MCF-7 Tam1) | viability inhibition at highest dose (MCF-7; 4-OH-tamoxifen in medium 0 µM) | viability inhibition at highest dose (MCF-7; 4-OH-tamoxifen in medium 1 µM) | viability inhibition at highest dose (T-47D Tam1) | viability inhibition at highest dose (T-47D Tam2) | viability inhibition at highest dose (T-47D; 4-OH-tamoxifen in medium 0 µM) | viability inhibition at highest dose (T-47D; 4-OH-tamoxifen in medium 1 µM) | viability inhibition at highest dose (ZR-75-1 Tam1) | viability inhibition at highest dose (ZR-75-1 Tam2) | viability inhibition at highest dose (ZR-75-1; 4-OH-tamoxifen in medium 0 µM) | viability inhibition at highest dose (ZR-75-1; 4-OH-tamoxifen in medium 1 µM) |
| --- | --- | --- | --- | --- | --- | --- | --- | --- | --- | --- | --- | --- | --- | --- | --- |
| CC(=O)c1c(C)c2cnc(Nc3ccc(N4CCNCC4)cn3)nc2n(C2CCCC2)c1=O (drug 10000 nM) | 6.18 | 9.88 | 1.33 | 4.19 | 21.2 | 33.1 | 27.9 | 29.5 | 21.5 | 28.1 | 0.74 | 18.7 | 24.2 | 2.14 | 20.6 |
| CCc1cncnc1N1CCN(Cc2nc3ccc(C(F)(F)F)cc3[nH]2)CC1 (drug 10000 nM) | 68.5 | 41.4 | 36 | 53.7 | 20.7 | 37.2 | 33.2 | 33.4 | 31 | 33 | 15.3 | 17.9 | 25.5 | 18.5 | 28.3 |
| CN(C)C[C@@H]1CCn2cc(c3ccccc32)C2=C(C(=O)NC2=O)c2cn(c3ccccc23)CCO1 (drug 10000 nM) | 100 | 98 | 76 | 101 | 22.1 | 99.8 | 69.5 | 71.2 | 70.2 | 72.1 | 97.4 | 37.7 | 47.1 | 45.5 | 70.9 |
| CO[C@@H](C(=O)N1Cc2[nH]nc(NC(=O)c3ccc(N4CCN(C)CC4)cc3)c2C1)c1ccccc1 (drug 10000 nM) | -17.9 | -18.2 | -18.6 | -36.3 | 8.32 | 20.9 | 7.45 | 38.4 | 34.4 | 29.4 | 17.6 | -23.1 | -19.5 | -27.9 | -21.1 |
| COc1cc(Nc2ncc(F)c(Nc3ccc4c(n3)N(COP(=O)(O)O)C(=O)C(C)(C)O4)n2)cc(OC)c1OC (drug 10000 nM) | 55.4 | 2.03 | -18 | 41.4 | 47.8 | 34.7 | 70.4 | 49.3 | 47.1 | 40.2 | 36.8 | 28.5 | 31.6 | 7.12 | 20.8 |
| C[C@@]1(C(=O)Nc2ccc(F)nc2)CCCN1c1nc(Nc2cc(C3CC3)n[nH]2)c2cccn2n1 (drug 10000 nM) | 15.1 | 6.42 | 13 | 23.1 | 68.9 | 67.7 | 81.4 | 46.5 | 59.2 | 48.6 | 41.9 | -16.4 | -9.78 | -26.3 | -1.41 |
| Cc1cc(Nc2cc(CN3CCOCC3)c3nc(C)c(Cc4ccc(Cl)cc4F)n3n2)n[nH]1 (drug 10000 nM) | 96.7 | 96.4 | 5.76 | 66.4 | 47.8 | 66.7 | 68 | 45.6 | 46.2 | 21.2 | 24.4 | -2.02 | 16.8 | -23.2 | 0.926 |
| Cn1cc(C2=Nc3cc(NC(=O)C(N)C4CCCCC4)cc4c3C2=CNNC4=O)cn1 (stereo not given) (drug 10000 nM) | 3.49 | -6.26 | 3.65 | -3.68 | 1.36 | 31 | 12.3 | 28.7 | 26.5 | 4.48 | 28.4 | -5.99 | -2.91 | 8.7 | -11.4 |
| N#CC[C@H](C1CCCC1)n1cc(-c2ncnc3[nH]ccc23)cn1 (drug 10000 nM) | -28.1 | -31.9 | -21.3 | -53.3 | -11.4 | 1.33 | -20.6 | -14.3 | -5.81 | -12.9 | -14.9 | -14.2 | -7.38 | -0.421 | -1.41 |
| N#Cc1ccc(COC[C@H]2O[C@@H](n3c(NCc4ccc(Cl)c(Cl)c4)nc4c(N)ncnc43)[C@H](O)[C@@H]2O)cc1 (drug 10000 nM) | 49.5 | 38.6 | 20.7 | 65.8 | 25.6 | 46.5 | 49.6 | 48 | 34.5 | 42.5 | 29 | 46.4 | 51.2 | 55.3 | 49.5 |
| NC(=O)c1ccc(I)c([N+](=O)[O-])c1 (drug 10000 nM) | -6.12 | -6.48 | 3.04 | -11 | 2 | 2.33 | -5.76 | 7.73 | 14.7 | -4.63 | -1.38 | 7.66 | -0.492 | -1.66 | 4.93 |
| O=C(NC[C@H](O)CO)c1ccncc1Nc1ccc(I)cc1F (drug 10000 nM) | 13.6 | 6.28 | 17.2 | 48 | 12.7 | 35.6 | 19.8 | 35.6 | 34 | 10.4 | -8.51 | 2.34 | 7.84 | 7.13 | 10 |
| c1ccc2c(CCNc3ccc(Nc4ccncc4)cc3)c[nH]c2c1 (drug 10000 nM) | 91.8 | 37.9 | -5.93 | 78 | 12.8 | 62.4 | 22.2 | 20.6 | 22.6 | 16.5 | 9.19 | 21.8 | 32.2 | 14 | 25.5 |
| Nc1nc(=O)c2c([nH]1)NCC(CNc1ccc(C(=O)N[C@@H](CCC(=O)O)C(=O)O)cc1)N2C=O (mixture of isomers) [Folinic acid] (drug 990000 nM) | 3.17 | 3.09 | 1.3 | -8.34 | -1.58 | 0.626 | 3.23 | -0.031 | -14.6 | 3.41 | -2.78 | 1.59 | 5.23 | 3.64 | -3.47 |
| COc1cc2c(cc1O)CC[C@@H]1[C@@H]2CC[C@]2(C)[C@@H](O)CC[C@@H]12 [2-methoxyestradiol  (Panzem)] (drug 10000 nM) | 27.1 | 24.3 | 48.9 | 63.3 | -11.2 | 24.8 | 17.7 | 24.5 | 29.8 | 32.6 | -2.41 | 6.41 | 3.21 | 36.8 | 2.3 |
| CC/C(=C(\c1ccc(O)cc1)c1ccc(OCCN(C)C)cc1)c1ccccc1 [4-hydroxytamoxifen] (drug 10000 nM) | 97.8 | 96 | 23.3 | 97.2 | 46.3 | 52.3 | 83.1 | 38.4 | 79.7 | 20.4 | 59 | 17.8 | 21.5 | 8.03 | 33.1 |
| CCCCC/C=C/C=C1/C(=O)C=C[C@@H]1C/C=C\CCCC(=O)O [15D-PGJ2] (drug 800 nM) | -6.35 | -6.87 | -7.22 | -14.5 | -5.28 | -3.98 | -2.34 | 0.0444 | 19.6 | -18.6 | -6.02 | -1.15 | -2.77 | -12.7 | 5.41 |
| Cc1sc2c(c1C)C(c1ccc(Cl)cc1)=N[C@@H](CC(=O)OC(C)(C)C)c1nnc(C)n1-2 [(+)JQ1] (drug 10000 nM) | 75 | 76.6 | 31.3 | 68.4 | 15.2 | 52.8 | 59.6 | 46.9 | 29.1 | 34.3 | 16.5 | 43.3 | 37.8 | 29.8 | 30.9 |
| COc1ccc(S(=O)(=O)Nc2cccnc2Nc2ccc(O)cc2)cc1 [ABT-751] (drug 10000 nM) | 64.7 | 54.2 | 42.6 | 73.1 | 1.63 | 50.3 | 44.6 | 58.6 | 38.3 | -0.891 | 2.69 | 4.33 | 18.6 | 36.3 | 14.9 |
| O=C(Nc1c[nH]nc1-c1nc2ccc(CN3CCOCC3)cc2[nH]1)NC1CC1 [AT9283] (drug 1000 nM) | 1.94 | 11.4 | -19.7 | -13.2 | -5.75 | -25.8 | -11 | -7.78 | 2.08 | -42.6 | -23.3 | -22.4 | -19.2 | -44.4 | -22.6 |
| COc1cc(OC2CCN(C)CC2)ccc1Nc1ncc2c(n1)n(C1CCCC1)c(=O)n2C [AZ 3146] (drug 10000 nM) | 74.5 | 25.9 | 9.21 | 77.2 | 11.7 | 24.5 | 15 | 20.1 | 26.5 | 27.1 | 14.1 | 19.6 | 24 | 20.8 | 22.9 |
| Cc1cc(Nc2nc(N[C@@H](C)c3ncc(F)cn3)ncc2Cl)[nH]n1 [AZD1480] (drug 1000 nM) | 3.08 | -2.54 | -2.51 | 8 | 1.6 | 13.1 | 6.46 | 2.99 | 3.94 | -12.1 | -7.24 | -2.1 | -3.72 | -6.08 | -11.4 |
| COc1cc(CCc2cc(NC(=O)c3ccc(N4CC(C)NC(C)C4)cc3)n[nH]2)cc(OC)c1 (stereo not given) [AZD4547] (drug 1000 nM) | 8.22 | -5.95 | -7.84 | 5.15 | -1.84 | -4.05 | 2.4 | -9.97 | -1.01 | -22.2 | 8.39 | 1.86 | -8.6 | -14.5 | -5.83 |
| NC(=O)Nc1cc(-c2cccc(F)c2)sc1C(=O)N[C@H]1CCCNC1 [AZD7762] (drug 1000 nM) | -13.6 | -14.7 | -6.57 | -6.16 | 2.31 | 35.5 | 5.25 | 18.2 | 29.3 | -14.8 | 13.8 | -10.3 | -5.84 | 10.5 | -0.00544 |
| COc1ccc(-c2ccc3c(N4CCOC[C@@H]4C)nc(N4CCOC[C@@H]4C)nc3n2)cc1CO [AZD8055] (drug 10000 nM) | 80.1 | 56.1 | 43.2 | 77.2 | 34.5 | 72.4 | 56.5 | 54.4 | 58.3 | 61 | 55.9 | 57.3 | 61 | 60 | 50.2 |
| C[C@]12CC[C@H](O)CC1=CC[C@@H]1[C@@H]2CC[C@]2(C)C(c3cccnc3)=CC[C@@H]12 [Abiraterone (CB-7598)] (drug 5000 nM) | 6.31 | -1 | -6.23 | -14.7 | -8.38 | -13.6 | -10.3 | -5.53 | -1.44 | -18.4 | -16.6 | -0.517 | -3.39 | -6.86 | -7.24 |
| CN(C)C/C=C/C(=O)Nc1cc2c(Nc3ccc(F)c(Cl)c3)ncnc2cc1O[C@H]1CCOC1 [Afatinib (BIBW2992, Tovok)] (drug 1000 nM) | 95.9 | 95.5 | 82.2 | 93.8 | -0.193 | -11.5 | 19 | 19.8 | 16.6 | 0.755 | -3.23 | 0.501 | -3.77 | -5.16 | 1.48 |
| COc1cc(Nc2ncc3c(n2)-c2ccc(Cl)cc2C(c2c(F)cccc2OC)=NC3)ccc1C(=O)O [Alisertib (MLN8237)] (drug 10000 nM) | 13.6 | -5.31 | 11.6 | 34.7 | 16.2 | 17.2 | 7.64 | 38.9 | 41 | 27.3 | 28.5 | -1.42 | 4.01 | -2.57 | 9.24 |
